{
  "source": "patent US20120128705A1",
  "about": "“C6ORF167 PEPTIDES AND VACCINES CONTAINING THE SAME” (OncoTherapy Science, Inc., priority 2009, published 2012)",
  "note": "Ends that are not written are not given here.",
  "data": [
    {"test_system": "peptide-pulsed A24LCL", "experiment": "IFN-gamma ELISPOT assay on CTLs induced with peptide (HLA-A*2402)", "type": "cell-based, human", "details": "CTLs from HLA-A*2402 positive donor, 3 rounds of stimulation, day 21; vs control wells without peptide", "excerpt": "Monocyte-derived dendritic cells (DCs) were used as antigen-presenting cells (APCs) to induce cytotoxic T lymphocyte (CTL) responses against peptides presented on human leukocyte antigen (HLA). DCs were generated in vitro as described elsewhere (Nakahara S et al., Cancer Res 2003 Jul. 15, 63(14): 4112-8). Specifically, peripheral blood mononuclear cells (PBMCs) isolated from a normal volunteer (HLA-A*2402 positive) by Ficoll-Plaque (Pharmacia) solution were separated by adherence to a plastic tissue culture dish (Becton Dickinson) so as to enrich them as the monocyte fraction. The monocyte-enriched population was cultured in the presence of 1,000 U/ml of granulocyte-macrophage colony-stimulating factor (GM-CSF) (R&D System) and 1,000 U/ml of interleukin (IL)-4 (R&D System) in AIM-V Medium (Invitrogen) containing 2% heat-inactivated autologous serum (AS). After 7 days of culture, the cytokine-induced DCs were pulsed with 20 micro-g/ml of each of the synthesized peptides in the presence of 3 micro-g/ml of beta 2-microglobulin for 3 hrs at 37 degrees C. in AIM-V Medium. The generated cells appeared to express DC-associated molecules, such as CD80, CD83, CD86 and HLA class II, on their cell surfaces (data not shown). These peptide-pulsed DCs were then inactivated by X-irradiation (20 Gy) and mixed at a 1:20 ratio with autologous CD8+ T cells, obtained by positive selection with CD8 positive Isolation Kit (Dynal). These cultures were set up in 48-well plates (Corning); each well contained 1.5×10^4 peptide-pulsed DCs, 3×10^5 CD8+ T cells and 10 ng/ml of IL-7 (R&D System) in 0.5 ml of AIM-V/2% AS medium. Three days later, these cultures were supplemented with IL-2 (CHIRON) to a final concentration of 20 IU/ml. On days 7 and 14, the T cells were further stimulated with the autologous peptide-pulsed DCs. The DCs were prepared each time by the same way described above. CTL was tested against peptide-pulsed A24LCL cells after the 3rd round of peptide stimulation on day 21 (Tanaka H et al., Br J Cancer 2001 Jan. 5, 84(1): 94-9; Umano Y et al., Br J Cancer 2001 Apr. 20, 84(8): 1052-7; Uchida N et al., Clin Cancer Res 2004 Dec. 15, 10(24): 8577-86; Suda T et al., Cancer Sci 2006 May, 97(5): 411-9; Watanabe T et al., Cancer Sci 2005 August, 96(8): 498-506).\nTo examine specific CTL activity, interferon (IFN)-gamma enzyme-linked immunospot (ELISPOT) assay and IFN-gamma enzyme-linked immunosorbent assay (ELISA) were performed. Specifically, peptide-pulsed A24LCL (1×10^4/well) was prepared as stimulator cells. Cultured cells in 48 wells were used as responder cells. IFN-gamma ELISPOT assay and IFN-gamma ELISA assay were performed under manufacture procedure.", "values": [
      {"substance": "AFREkAKEFL (AFREKAKEFL; not fully specified; printed as AFREkAKEFL) [SEQ ID NO: 45]", "Peptide specific CTL activity: IFN-gamma production by ELISPOT": "potent IFN-gamma production"},
      {"substance": "AFVNqNQIKL (AFVNQNQIKL; not fully specified; printed as AFVNqNQIKL) [SEQ ID NO: 39]", "Peptide specific CTL activity: IFN-gamma production by ELISPOT": "potent IFN-gamma production"},
      {"substance": "IFATsKAQKL (IFATSKAQKL; not fully specified; printed as IFATsKAQKL) [SEQ ID NO: 41]", "Peptide specific CTL activity: IFN-gamma production by ELISPOT": "potent IFN-gamma production"},
      {"substance": "IYSKfHQKRM (IYSKFHQKRM; not fully specified; printed as IYSKfHQKRM) [SEQ ID NO: 43]", "Peptide specific CTL activity: IFN-gamma production by ELISPOT": "potent IFN-gamma production"},
      {"substance": "KQLVkLTRLL (KQLVKLTRLL; not fully specified; printed as KQLVkLTRLL) [SEQ ID NO: 53]", "Peptide specific CTL activity: IFN-gamma production by ELISPOT": "potent IFN-gamma production"},
      {"substance": "LFEEhCETLL (LFEEHCETLL; not fully specified; printed as LFEEhCETLL) [SEQ ID NO: 38]", "Peptide specific CTL activity: IFN-gamma production by ELISPOT": "potent IFN-gamma production"},
      {"substance": "LFRIiDCLLL (LFRIIDCLLL; not fully specified; printed as LFRIiDCLLL) [SEQ ID NO: 47]", "Peptide specific CTL activity: IFN-gamma production by ELISPOT": "potent IFN-gamma production"},
      {"substance": "LYKSsSSYTI (LYKSSSSYTI; not fully specified; printed as LYKSsSSYTI) [SEQ ID NO: 36]", "Peptide specific CTL activity: IFN-gamma production by ELISPOT": "potent IFN-gamma production"},
      {"substance": "NFEEdTLEIF (NFEEDTLEIF; not fully specified; printed as NFEEdTLEIF) [SEQ ID NO: 48]", "Peptide specific CTL activity: IFN-gamma production by ELISPOT": "potent IFN-gamma production"},
      {"substance": "SFWNWLNKL [SEQ ID NO: 18]", "Peptide specific CTL activity: IFN-gamma production by ELISPOT": "potent IFN-gamma production"},
      {"substance": "TFLTDSLEL [SEQ ID NO: 14]", "Peptide specific CTL activity: IFN-gamma production by ELISPOT": "potent IFN-gamma production"},
      {"substance": "YYSKnLNSSF (YYSKNLNSSF; not fully specified; printed as YYSKnLNSSF) [SEQ ID NO: 34]", "Peptide specific CTL activity: IFN-gamma production by ELISPOT": "potent IFN-gamma production"}
    ]}
  ]
}
